Assay results taken from ChEMBL document CHEMBL1201862, “PubChem BioAssay data set” (2004).
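Each compound was tested at five concentrations against cells in 96-well plates for 48 hours. Abbreviation: GI50, concentration required for 50% inhibition of growth.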 Calls of active or inactive are those of the source. No stated cut-off is given here; in the data, active = GI50 up to about 1.1 µM and inactive = higher.

Experiments:
Assay in all cases: inhibition of tumour cell growth, NCI panel, 48 h
[1] = test system: MDA-N
[2] = test system: HT-29
[3] = test system: Malme-3M
[4] = test system: OVCAR-3
[5] = test system: UACC-257
[6] = test system: KM12
[7] = test system: COLO 205
[8] = test system: OVCAR-8
[9] = test system: CCRF-CEM
[10] = test system: DU-145
[11] = test system: HL-60
[12] = test system: MDA-MB-231
[13] = test system: HCC 2998
[14] = test system: EKVX
[15] = test system: U-251
[16] = test system: NCI-H23
[17] = test system: SK-MEL-28
[18] = test system: MCF7
[19] = test system: MOLT-4
[20] = test system: SK-MEL-2

Row | Structure (SMILES) | GI50 [1] | GI50 [2] | GI50 [3] | GI50 [4] | GI50 [5] | GI50 [6] | GI50 [7] | GI50 [8] | GI50 [9] | GI50 [10] | GI50 [11] | GI50 [12] | GI50 [13] | GI50 [14] | GI50 [15] | GI50 [16] | GI50 [17] | GI50 [18] | GI50 [19] | GI50 [20]
1 | Oc1c(Br)ccc2cccnc12 | > 19.8 µM (inactive) | 5.3 µM (inactive) | 3.46 µM (inactive) | 1.32 µM (inactive) | 1.36 µM (inactive) | 4.07 µM (inactive) | 3.04 µM (inactive) | 2.25 µM (inactive) | 0.521 µM (active) | 5.4 µM (inactive) | 0.326 µM (active) | 1.87 µM (inactive) | 15.1 µM (inactive) | 3.27 µM (inactive) | 2.4 µM (inactive) | 1.15 µM (inactive) | 20.5 µM (inactive) | 0.443 µM (active) | 2.02 µM (inactive) | 11.2 µM (inactive)
2 | CC(C(=O)NCCNC(=O)CCCC(=O)N(C)O)C(=O)NCCNC(=O)CCCC(=O)N(C)O | > 100 µM (inactive) | > 100 µM (inactive) | > 100 µM (inactive) | > 100 µM (inactive) | > 100 µM (inactive) | > 100 µM (inactive) | > 100 µM (inactive) | > 100 µM (inactive) | > 100 µM (inactive) | > 100 µM (inactive) | > 100 µM (inactive) | > 100 µM (inactive) | > 100 µM (inactive) | > 100 µM (inactive) | > 100 µM (inactive) | > 100 µM (inactive) | 20.1 µM (inactive) | > 100 µM (inactive) | > 100 µM (inactive) | > 100 µM (inactive)
3 | O=[N+]([O-])c1cccc2nccc(NCC(O)CO)c12 (configuration not stated) | 17.1 µM (inactive) | 14.7 µM (inactive) | 14.4 µM (inactive) | 15.5 µM (inactive) | 15.2 µM (inactive) | 14 µM (inactive) | 15 µM (inactive) | 11.6 µM (inactive) | 13.3 µM (inactive) | 26.3 µM (inactive) | 1.36 µM (inactive) | 11.5 µM (inactive) | 13.1 µM (inactive) | 14.5 µM (inactive) | 14.6 µM (inactive) | 16 µM (inactive) | 15.7 µM (inactive) | 13.9 µM (inactive) | 9.55 µM (inactive) | 11.4 µM (inactive)
4 | CC(C)CC(N)C(=O)NC(CNC(CCC(N)=O)C(=O)NC(CC(C)C)C(=O)NC(CC(C)C)C(=O)O)Cc1ccc2ccccc2c1 (configuration not stated) | > 10 µM (inactive) | > 10 µM (inactive) | > 10 µM (inactive) | > 10 µM (inactive) | > 10 µM (inactive) | > 10 µM (inactive) | > 10 µM (inactive) | > 10 µM (inactive) | > 10 µM (inactive) | > 10 µM (inactive) | > 10 µM (inactive) | > 10 µM (inactive) | > 10 µM (inactive) | > 10 µM (inactive) | > 10 µM (inactive) | > 10 µM (inactive) | > 10 µM (inactive) | > 10 µM (inactive) | > 10 µM (inactive) | > 10 µM (inactive)
5 | COc1ccc(C2c3cc4c(cc3OC(NCCO)C2C)OCO4)cc1 (configuration not stated) | 18.2 µM (inactive) | 20 µM (inactive) | 18.7 µM (inactive) | 17.8 µM (inactive) | 21 µM (inactive) | 31.7 µM (inactive) | 18.4 µM (inactive) |  | 21.2 µM (inactive) | 29.4 µM (inactive) | 22.6 µM (inactive) | 26.9 µM (inactive) | 26.5 µM (inactive) | 32 µM (inactive) | 21.2 µM (inactive) | 35.8 µM (inactive) | 25.1 µM (inactive) | 27.3 µM (inactive) | 16.6 µM (inactive) | 19.3 µM (inactive)
6 | COc1c(-c2ccc3c(c2)OCO3)oc2cc3c(c(OC)c2c1=O)OCO3 [MELITERNATIN] | 18.5 µM (inactive) | 23.3 µM (inactive) | 24.8 µM (inactive) | 22.4 µM (inactive) | 38.5 µM (inactive) | 25.5 µM (inactive) | 23.1 µM (inactive) | 19.1 µM (inactive) | 30.8 µM (inactive) | 30.5 µM (inactive) | 1.09 µM (active) | 43 µM (inactive) | 26.9 µM (inactive) | 24.5 µM (inactive) | 16.6 µM (inactive) | 22.8 µM (inactive) | 38.1 µM (inactive) | 18.4 µM (inactive) | > 100 µM (inactive) | 19.6 µM (inactive)
7 | CN(C)c1ccc(C2CC(=O)CC(c3ccc(N(C)C)cc3)C23C(=O)NC(=O)NC3=O)cc1 (configuration not stated) | > 25 µM (inactive) | > 25 µM (inactive) | 8.73 µM (inactive) | > 25 µM (inactive) | > 25 µM (inactive) | > 25 µM (inactive) | > 25 µM (inactive) | 14.4 µM (inactive) | > 25 µM (inactive) | > 25 µM (inactive) | > 25 µM (inactive) | > 25 µM (inactive) | > 25 µM (inactive) | > 25 µM (inactive) | 20.6 µM (inactive) | > 25 µM (inactive) | > 25 µM (inactive) | > 25 µM (inactive) | 0.0025 µM (active) | 16.7 µM (inactive)
8 | CC1=NN(C(=O)c2ccccc2O)C(=O)/C1=C/c1c(O)ccc2ccccc12 | 5.2 µM (inactive) | 10.2 µM (inactive) | 1.52 µM (inactive) | 0.201 µM (active) | 2.47 µM (inactive) | 2.78 µM (inactive) | 2.9 µM (inactive) | 1.01 µM (active) | 0.312 µM (active) | 0.607 µM (active) | 0.299 µM (active) | 3.97 µM (inactive) | 12.9 µM (inactive) | 0.713 µM (active) | 0.982 µM (active) | 1.43 µM (inactive) | 1.69 µM (inactive) | 3.31 µM (inactive) | 1.8 µM (inactive) | 1.14 µM (inactive)
9 | Cc1c(Cl)c(=O)oc2cc(OCC(=O)c3ccccc3)ccc12 | > 100 µM (inactive) | > 100 µM (inactive) | > 100 µM (inactive) | > 100 µM (inactive) | > 100 µM (inactive) | > 100 µM (inactive) | > 100 µM (inactive) | > 100 µM (inactive) | > 100 µM (inactive) | > 100 µM (inactive) | > 100 µM (inactive) | 29.4 µM (inactive) | > 100 µM (inactive) | > 100 µM (inactive) | 33.2 µM (inactive) | > 100 µM (inactive) | > 100 µM (inactive) | > 100 µM (inactive) | > 100 µM (inactive) | > 100 µM (inactive)
10 | O=C1C=C(Sc2ccccc2)c2nccc3c2c1nc1ccccc13 | 16.9 µM (inactive) | 11.2 µM (inactive) | 12.2 µM (inactive) | 3.35 µM (inactive) | 15.5 µM (inactive) | 16.7 µM (inactive) | 16.6 µM (inactive) | 18.1 µM (inactive) | 3.13 µM (inactive) | 40.9 µM (inactive) | 2.08 µM (inactive) | 20 µM (inactive) | 17.5 µM (inactive) | 20.7 µM (inactive) | 18.5 µM (inactive) | 23.6 µM (inactive) | 19.3 µM (inactive) | 14.9 µM (inactive) | 4.27 µM (inactive) | 14.2 µM (inactive)
11 | O=C/C(=C1/C=Cc2cc([N+](=O)[O-])ccc2S1)c1ccccc1 | > 100 µM (inactive) | > 100 µM (inactive) | > 100 µM (inactive) | > 100 µM (inactive) | > 100 µM (inactive) |  | > 100 µM (inactive) |  | > 100 µM (inactive) | > 100 µM (inactive) | > 100 µM (inactive) | > 100 µM (inactive) | > 100 µM (inactive) | > 100 µM (inactive) | > 100 µM (inactive) | > 100 µM (inactive) | > 100 µM (inactive) | > 100 µM (inactive) | > 100 µM (inactive) | > 100 µM (inactive)
12 | O=C(Nc1ccccc1)OCCN=C1c2ccccc2C(Br)C(Br)c2ccccc21 (configuration not stated) | 3.82 µM (inactive) | 5.25 µM (inactive) | 6.15 µM (inactive) | 6.12 µM (inactive) | 6.59 µM (inactive) | 13.2 µM (inactive) | 4.94 µM (inactive) | 4.09 µM (inactive) | 1.49 µM (inactive) | 9.16 µM (inactive) | 1.92 µM (inactive) | 15.2 µM (inactive) | 14.8 µM (inactive) | 10 µM (inactive) | 8.45 µM (inactive) | 10.4 µM (inactive) | 9.06 µM (inactive) | 5.68 µM (inactive) | 2.01 µM (inactive) | 22.2 µM (inactive)
